Like-named read-outs stand apart in the source and are kept apart here.
How the values were obtained:
Assay type in all cases: cell-based
[1] = tested on: normal human ectocervical epithelial cells; test: cells; conditions: 24 h, read-out: Ectocervical cells IC50
Protocol: (§1) The potential cytotoxicity of aryl phosphate derivatives of bromo-methoxy ZDV in comparison to N-9, against normal human ectocervical and endocervical epithelial cells (Clonetics Corporation, San Diego, Calif.), was measured using MTT (3-[4,5-dimethylthiazol-2-yl]-2,5-diphenyl tetrazolium bromide) cell viability assays (Boehringer Mannheim Corp., Indianapolis, Ind.) [see, D'Cruz O J, et al., Mol Hum Reprod 1999; 5:421-432; D'Cruz O J, et al., Contraception 1999; 59 (in press); and Uckun F M, et al., Antimicrob Agents Chemther 1998; 42:383-388]. Briefly, exponentially growing ectocervical and endocervical epithelial cells were seeded into 96-well plate at a density of 2×10^5 cells/well and incubated for 24 h at 37° C. prior to drug exposure. On the day of treatment, culture medium was carefully aspirated from the wells and replaced with fresh medium containing drug concentrations ranging from 3.9 μM to 1000 μm. Triplicate wells were used for each treatment. The cells were incubated with the various compounds for 24 hours at 37° C. in a humidified 5% CO2 atmosphere. To each well, 10 μl of MTT (0.5 mg/ml final concentration) was added and the plates were incubated at 37° C. for 4 hours to allow MTT to form formazan crystals by reacting with metabolically active cells. The formazan crystals were solubilized overnight at 37° C. in a solution containing 10% SDS in 0.01 M HCl. The absorbance of each well was measured in a microtiter reader at 540 nm and a reference wavelength of 690 nm. To translate the OD540 values into the number of live cells in each well, the OD540 values were compared to those of standard OD540 versus cell number curves generated for each cell line. The percent cell survival was calculated using the formula: % survival=live cell number[test]/live cell number[control]×100. The results were expressed as IC50 values. The IC50 was defined as the concentration required for 50% reduction in cell survival. Two separate experiments were performed in triplicate to assess the potential cytotoxicity of spermicidal WHI-07 analogues against ectocervical and endocervical epithelial cells.

[2] = tested on: normal human endocervical epithelial cells; test: cells; conditions: 24 h, read-out: Endocervical cells IC50
Protocol: as §1

[3] = tested on: human sperm; test: Sperm motility assay by CASA (Example 1); conditions: for EC50: read-out: EC50, sperm motility
Protocol: All donor specimens were obtained after informed consent and in compliance with the guidelines of the Wayne Hughes Institute Institutional Review Board. Motile sperm (≧10×10^6/ml), were suspended in 0.5 ml of Biggers, Whitten, and Whittingam's medium (BWW) containing 25 mM HEPES (Irvine Scientific, Santa Ana, Calif.), and 0.3% bovine serum albumin (BSA; Fraction V, Sigma Chemical Co, St. Louis, Mo.) in the presence and absence of serial two-fold dilutions of test substance (300 μM to 4.6 μm) in 1% DMSO. The stock solutions of synthetic WHI compounds were prepared in DMSO (10 mg/ml) and diluted in DMSO to yield the desired concentrations. Corresponding volume of DMSO (1%) was added to control tubes. N-9 was diluted in BWW-0.3% BSA (pH 7.4) to yield the desired concentrations (4.6 to 300 μM). After 3 hours of incubation at 37° C., the percentage of motile sperm was evaluated by computer-assisted sperm analysis (CASA) as described [L. J. Burkman, Fertil. Steril. […] The percent motilities were compared with sham-treated control suspensions of motile sperm. […] Non-linear regression analyses were used to determine the EC50 values from the concentration effect curves using GraphPad PRISM software (San Diego, Calif.).
For evaluating sperm motion kinematics using CASA, 4 μl each of sperm suspension was loaded into two 20-μm Microcell chambers (Conception Technologies) that was placed onto a counting chamber at 37° C. At least 5-8 fields per chamber were scanned for analysis using a Hamilton Thorne Integrated Visual Optical System (IVOS), version 10 instrument (Hamilton Thorne Research Inc., Danvers, Mass.). Each field was recorded for 30 seconds. […] The performance of the analyzer was periodically checked using the play-back function. The attributes of sperm kinematic parameters evaluated included numbers of motile (MOT) and progressively (PRG) motile sperm; curvilinear velocity (VCL; a measure of the total distance traveled by a given sperm during the acquisition divided by the time elapsed); average path velocity (VAP; the spatially averaged path that eliminates the wobble of the sperm head), straight line velocity (VSL; the straight-line distance from beginning to end of track divided by time taken), beat cross frequency (BCF, frequency of sperm head crossing sperm average path), the amplitude of lateral head displacement (ALH; the mean width of sperm head oscillation) and the derivatives, straightness ([…]); linearity (LIN=100×VSL/VCL; departure of sperm track from a straight line). Data from each individual cell track were recorded and analyzed. At least 200 motile sperm were analyzed for each aliquot sampled.

[4] = Homo sapiens, Epithelial cell, MTT, mean ± SD of two experiments
[5] = MTT, mean ± SD of two experiments
[6] = 3 hours incubation at 37° C., CASA

## CCCCCCCCCc1ccc(OCCOCCOCCOCCOCCOCCOCCOCCOCCO)cc1 [Compound N-9, nonoxynol-9, reference compound]
[1]; [4]
  IC50: 22 ± 8 µM
[2]; [4]
  IC50: 16 ± 5 µM
[3]; Homo sapiens, Sperm, 3 hours incubation at 37° C., CASA
  EC50: 81 µM

## 5-Bromo-6-methoxy-5,6-dihydro-3′-azidothymidine-5′-[(p-Fluorophenyl methoxyalaninyl phosphate] [WHI-06]
[1]; [5]
  IC50: 304 ± 79 µM
[2]; [5]
  IC50: 939 ± 157 µM
[3]; [6]
  EC50: 15 µM

## 5-Bromo-6-methoxy-5,6-dihydro-3′-azidothymidine 5′-[Phenyl methoxyalaninyl phosphate] [WHI-04]
[1]; [5]
  IC50: > 1000 µM
[2]; [5]
  IC50: > 1000 µM
[3]; compared with related derivatives
  spermicidal activity, in words: improved spermicidal activity over WHI-01

## COC(=O)C(C)NP(=O)(OCC1OC(N2C(=O)NC(=O)C(C)(Br)C2OC)CC1N=[N+]=[N-])Oc1ccc(Br)cc1 (stereo not drawn) [WHI-07, 5-Bromo-6-methoxy-5,6-dihydro-3′-azidothymidine-5′-(p-Bromophenyl Methoxyalaninyl Phosphate)]
[1]; Homo sapiens, Epithelial cell
  IC50: > 1000 µM
[2]; Homo sapiens, Epithelial cell
  IC50: 312 ± 38 µM
[3]; Homo sapiens, Sperm, 3 h
  EC50: 6 µM

## 5-bromo-6-methoxy-5,6-dihydro-3 ′-azidothymidine-5 ′-(p-methoxyphenyl) methoxyalaninyl phosphate [WHI-05]
[1]; [5]
  IC50: > 1000 µM
[2]; [5]
  IC50: 388 ± 38 µM
[3]; [6]
  EC50: 29 µM
